# Source: US9050353B2, “Use of icariin and epimedium flavonoids containing icariin to treat diseases associated with myelin sheath lesion” (Xuanwu Hospital of Capital Medical University, priority 2010, dated 2015)
# Key:
# Assay type in all cases: in vivo
# [1] = tested on: inflammatory cell infiltration in spinal cord tissues of EAE mice model; test: Inflammatory cell infiltration in spinal cord, HE staining, EAE mice; conditions: positive control drug, dose not given, scale 0-4
# Description: (§1) Preparation of mice model and administration: experimental autoimmune encephalomyelitis (EAE) mice model is an important tool for studying various human demyelinating diseases of nervous system. In the present experiment, the preparation of EAE mice model was performed by immunizing female C57BL/6J mice with myelin sheath oligodendroglial cell surface glycoprotein MOG35-55. That is, the mice were subcutaneously injected at dorsal part of spinal column with 0.2 mL of MOG35-55 antigen elixir, and 0.2 ml of bordetella pertussis solution was intraperitoneally injected at the time of immunization injection and 48 h thereafter, respectively. Icariin was intragastrically administered after the last injection of bordetella pertussis solution, for consecutive 3 weeks.
# Experimental objective: the pathological changes of spinal cord in EAE model, especially inflammatory cell infiltration situations was assayed by hematoxylin-eosin (HE) staining test, and the intervention effects of […] on these pathological changes were observed.
# Experimental method: the mice were anesthetized with 10% chloral hydrate on the 28th day of experiment, fixed by perfusion of 4% paraformaldehyde, spinal cord tissues were taken for making paraffin sections, section thickness […]. Stained with HE, observed under microscope, and scored according to the following standard: 0 score, absence of cell infiltration; 1 score, spinal meninge cell infiltration; 2 score, 1 to 4 small ranges of cell infiltration around vessels; 3 score, 5 or more small ranges of cell infiltration around vessels, or one or more accumulatively substantial large range of cell infiltration; 4 score, a large number of cell infiltration ranges accumulatively existing in 20% or more of white matter regions.
# nitric oxide (NO) = test: NO content of cerebral cortex, biochemical kit, EAE rats; conditions: positive control drug, dose not given
# Description: (§2) Preparation of rat model and administration: experimental autoimmune encephalomyelitis (EAE) model is an important tool for studying various human demyelinating diseases of nervous system. In the example, the preparation of EAE rat model was performed by multipoint immunizing female Lewis rats subcutaneously at tail root with a homogenate of spinal cord and cerebral gray matter of Guinea pig as well as complete Freund's adjuvant after emulsification. They were intragastrically administered with Epimedium flavanoids for 3 weeks.
# (§3) Experimental objective: nitric-oxide synthase (NOS) catalyzes the generation of nitric oxide (NO). During inflammatory reaction, the activity of induced NOS increases, excess NO are generated and oxygen radicals are generated via oxidation, which may result in damages in nerve cells and myelin sheath. In this experiment, NOS activity and NO content were measured using biochemical kits in cerebral cortex of EAE rat model, and the effects of Epimedium flavanoids on changes thereof were observed. […]
# TNF-α = TNF-α content of cerebral cortex by ELISA, EAE rats; conditions: positive control drug, dose not given
# Description: as §2
# Experimental objective: tumor necrosis factor α (TNF-α) is an important inflammatory cytokines, and has promoting effects on inflammatory reactions. This experiment used enzyme linked immunosorbent assay (ELISA) to measure TNF-α content of cerebral cortex in EAE rat model, and observe the effects of Epimedium flavanoids on the content.
# Experimental method: rats were anesthetized and sacrificed, fresh brain tissues were was taken, processed to form cerebral cortex homogenate. The operation was performed strictly according to the steps of specification of ELISA kit. Optical density was measured with ELISA at 450 nm. The corresponding TNF-α content was calculated with the measured OD values on standard curve.
# [2] = tested on: nitric-oxide synthase (NOS); test: NOS activity of cerebral cortex, biochemical kit, EAE rats; conditions: positive control drug, dose not given
# Description: as §2, §3
# [3] = tested on: Nerve growth factors (NGF); test: NGF of spinal cord lumbar intumescentia by immunohistochemical method, EAE rats; conditions: positive control drug, dose not given
# Description: as §2
# Experimental objective: neurotrophic factors are important substances for constituting nerve regeneration microenvironment. Nerve growth factors (NGF) are important neurotrophic factors, can promote the regeneration and plerosis of nerve cells and myelin sheath. In this experiment, NGF content of spinal cord lumbar intumescentia in EAE rat model was measured by immunohistochemical method, and the effects of Epimedium flavanoids on the content was observed.
# Experimental method: the rats were anesthetized with 10% chloral hydrate, fixed by perfusion of 4% paraformaldehyde, spinal cord tissues were taken for frozen section. Incubated with NGF primary antibody, added with corresponding secondary antibody and third antibody, DAB colorated, observed under microscope, and pictures were analyzed using Image Pro plus5.0 software.
# [4] = tested on: inflammatory cell infiltration of spinal cord lumbar intumescentia in EAE rat model; test: Inflammatory cell infiltration of spinal cord lumbar intumescentia, HE staining, EAE rats; conditions: positive control drug, dose not given, scale 0-4
# Description: as §2, with “weeks. […]” for “weeks.”
# Experimental method: the rats were anesthetized with 10% chloral hydrate on the 14th day of experiment, fixed by perfusion of 4% paraformaldehyde, spinal cord tissues were taken for making paraffin sections, section thickness 4 μm. (1) Stained with LFB, observed under microscope, and scored according to the following standard: 0 score, absence of myelinoclasis; 1 score, one small range of myelinoclasis; 2 score, 2 or 3 small ranges of myelinoclasis; 3 score, 1 to 2 large ranges of myelinoclasis; 4 score, large ranges of myelinoclasis accumulatively existing in 20% or more of white matter regions. […]
# [5] = tested on: myeloid tissue myelinoclasis in EAE mice model; test: Myelinoclasis of myeloid tissue, LFB staining, EAE mice; conditions: positive control drug, dose not given, scale 0-4
# Description: as §1
# Experimental objective: the myelinoclasis of myeloid tissue of EAE model mice were assayed by Luxol Fast Blue (LFB) staining, and the intervention effects of icariin on this pathological change were studied.
# Experimental method: the mice were anesthetized with 10% chloral hydrate on the 29th day of experiment, fixed by perfusion of 4% paraformaldehyde, myeloid tissues were taken for making paraffin sections, section thickness […]. Stained with LFB, observed under microscope, and scored according to the following standard: 0 score, absence of myelinoclasis; 1 score, one small range of myelinoclasis; 2 score, 2 or 3 small ranges of myelinoclasis; 3 score, 1 to 2 large ranges of myelinoclasis; 4 score, large ranges of myelinoclasis accumulatively existing in 20% or more of white matter regions.
structure (smiles),measurement,setting,value
CC(=O)OCC(=O)[C@@]1(O)CC[C@H]2[C@@H]3CCC4=CC(=O)C=C[C@]4(C)[C@H]3C(=O)C[C@@]21C [prednisone acetate],Inflammatory cell infiltration (HE staining score),[1],1.05 ± 0.13
same,NO content,nitric oxide (NO),0.77 ± 0.01 mmol/mg protein
same,TNF-α content,TNF-α,64.29 ± 7.52 pg/mg pro
same,NOS activity,[2],2.44 ± 0.08 U/mg protein
same,NGF positive cell Accumulative optical density,[3],11.25 ± 1.67 ×10^5
same,Inflammatory cell infiltration (HE staining score),[4],1.00 ± 0.29
same,Myelinoclasis (LFB staining score),[5],0.77 ± 0.22
